For one data set, the system named is Arabidopsis roots. Conditions: in vivo; cited from earlier work.
The subject of a further data set is Arabidopsis. The experiment in a line: Combinatorial root growth assay with plant growth media supplied with Trp. It counts as in vivo. The method, then: To further test this hypothesis, we supplied plant growth media with Trp (FIG. 4, FIGS. 13 and 14) and repeated the combinatorial assay. […] In contrast, root growth might improve if the WCS417 strain are metabolically active only around the root tips. […] However, at 10 μM, Trp inhibited the root growth of plants colonized with the wild-type WCS417 strain. […] Additionally, we inoculated the engineered strains to the Trp-overproducing Arabidopsis mutant line. Root growth and development of this Arabidopsis mutant line are not also impaired (FIG. 4).
First, Arabidopsis seeds are sterilized with 70% ethanol for 2 min and 10% bleach for 5 min. These seeds are rinsed five times with sterile water. Sterilized seeds are kept in a 4° C. fridge for 3 days and then are horizontally individually dispensed on the surface of 1/2 MS agar plates. The plates are vertically incubated in a plant growth chamber under a light cycle of 8 h dark and 16 h light for 6 days. […] On the following day, cultures are washed three times with sterile 10 mM MgCl2 solution and measured for values at OD600nm using an Eppendorf Spectro reader. Uniformly germinated 6-day-old seedlings are inoculated with 1 μL of OD600nm=0.2 culture of engineered WCS417 strains. […] Collected photos are analyzed using EZ-Root-VIS software (Shahzad et al., 2018) for primary root length, lateral root number, and total length.

Turning to `O=C(O)Cc1c[nH]c2ccccc12` [IAA, Indole-3-acetic acid], in the data set on Arabidopsis roots, the “level of externally added IAA that significantly changes root phenotypes” value is 0.01 to 0.1 µM.

On to `N[C@@H](Cc1c[nH]c2ccccc12)C(=O)O` [Trp, tryptophan], for which the root growth entry in the data set with Arabidopsis (0.1 μM of Trp in plant growth media) is “did not see much impact”. In addition, the “root growth of plants colonized with the wild-type WCS417 strain” value in the data set with Arabidopsis (10 μM Trp in plant growth media) is on record as “inhibited”.

These data come from patent publication US20250324977A1, “ENGINEERED BACTERIA FOR ENHANCED CROP PRODUCTION” (The Regents of the University of California, priority 2022, published 2025).
